Reference: ChEMBL document CHEMBL1201862, “PubChem BioAssay data set” (2004)
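These data come from cells grown in 96-well plates and exposed to compound for 48 hours at five concentrations. GI50: concentration for 50% inhibition of growth.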 Activity calls are given as the source filed them. Cut-off read from the data, not from the text of the source: active = GI50 up to about 1.1 µM and inactive = higher.

Assays:
Test in all cases: NCI tumour cell line growth inhibition, 48 h
[1] = tested on: ACHN
[2] = tested on: COLO 205
[3] = tested on: IGROV-1
[4] = tested on: HOP-92
[5] = tested on: SNB-78
[6] = tested on: HT-29
[7] = tested on: DLD-1
[8] = tested on: RXF 631
[9] = tested on: SK-MEL-28
[10] = tested on: OVCAR-4
[11] = tested on: HOP-18
[12] = tested on: HCT-116
[13] = tested on: MOLT-4
[14] = tested on: SK-MEL-5
[15] = tested on: DMS-273
[16] = tested on: NCI-H23
[17] = tested on: A498
[18] = tested on: OVCAR-8
[19] = tested on: LXFL 529
[20] = tested on: EKVX
[21] = tested on: KM12
[22] = tested on: NCI-H460
[23] = tested on: RPMI-8226
[24] = tested on: HCT-15
[25] = tested on: KM-20L2
[26] = tested on: SNB-19
[27] = tested on: K562
[28] = tested on: SF-539
[29] = tested on: SK-OV-3
[30] = tested on: DMS-114
[31] = tested on: OVCAR-3
[32] = tested on: Malme-3M
[33] = tested on: NCI-H226
[34] = tested on: SNB-75
[35] = tested on: SF-268
[36] = tested on: UACC-62
[37] = tested on: OVCAR-5
[38] = tested on: HCC 2998
[39] = tested on: A549
[40] = tested on: SN12C
[41] = tested on: UO-31
[42] = tested on: HOP-62
[43] = tested on: 786-0
[44] = tested on: NCI-H522
[45] = tested on: SW-620
[46] = tested on: CAKI-1
[47] = tested on: TK-10
[48] = tested on: M14
[49] = tested on: M19-MEL
[50] = tested on: UACC-257
[51] = tested on: CCRF-CEM
[52] = tested on: SF-295
[53] = tested on: U-251
[54] = tested on: HL-60
[55] = tested on: LOX IMVI
[56] = tested on: SK-MEL-2
[57] = tested on: SR
[58] = tested on: XF498

**Q.** How did the GI50 [1] turn out when `CCN(CC)c1c(C)nnn1C1OC(COC(C)=O)C(OC(C)=O)C(OC(C)=O)C1OC(C)=O` (centres undefined) was run?
**A.** > 100 µM (inactive)

**Q.** What about the GI50 [2] of the same compound?
**A.** > 100 µM (inactive)

**Q.** And the GI50 [3]?
**A.** > 100 µM (inactive)

**Q.** What about the GI50 [4] of the same compound?
**A.** 70.8 µM (inactive)

**Q.** What about the GI50 [5] of the same compound?
**A.** > 100 µM (inactive)

**Q.** And the GI50 [6]?
**A.** > 100 µM (inactive)

**Q.** What about the GI50 [7] of the same compound?
**A.** > 100 µM (inactive)

**Q.** And the GI50 [8]?
**A.** > 100 µM (inactive)

**Q.** What about the GI50 [9] of the same compound?
**A.** > 100 µM (inactive)

**Q.** What about the GI50 [10] of the same compound?
**A.** > 100 µM (inactive)

**Q.** What about the GI50 [11] of the same compound?
**A.** > 100 µM (inactive)

**Q.** What about the GI50 [12] of the same compound?
**A.** > 100 µM (inactive)

**Q.** And the GI50 [13]?
**A.** > 100 µM (inactive)

**Q.** What about the GI50 [14] of the same compound?
**A.** > 100 µM (inactive)

**Q.** What about the GI50 [15] of the same compound?
**A.** > 10 µM (inactive)

**Q.** And the GI50 [16]?
**A.** > 100 µM (inactive)

**Q.** What about the GI50 [17] of the same compound?
**A.** > 100 µM (inactive)

**Q.** And the GI50 [18]?
**A.** > 100 µM (inactive)

**Q.** And the GI50 [19]?
**A.** > 100 µM (inactive)

**Q.** What about the GI50 [20] of the same compound?
**A.** > 100 µM (inactive)

**Q.** What about the GI50 [21] of the same compound?
**A.** > 100 µM (inactive)

**Q.** And the GI50 [22]?
**A.** > 100 µM (inactive)

**Q.** And the GI50 [23]?
**A.** 28.6 µM (inactive)

**Q.** What about the GI50 [24] of the same compound?
**A.** 38.6 µM

**Q.** And the GI50 [25]?
**A.** > 100 µM (inactive)

**Q.** What about the GI50 [26] of the same compound?
**A.** > 100 µM (inactive)

**Q.** And the GI50 [27]?
**A.** > 100 µM (inactive)

**Q.** What about the GI50 [28] of the same compound?
**A.** > 100 µM (inactive)

**Q.** What about the GI50 [29] of the same compound?
**A.** > 100 µM (inactive)

**Q.** And the GI50 [30]?
**A.** > 100 µM (inactive)

**Q.** What about the GI50 [31] of the same compound?
**A.** > 100 µM (inactive)

**Q.** What about the GI50 [32] of the same compound?
**A.** > 100 µM (inactive)

**Q.** And the GI50 [33]?
**A.** > 100 µM (inactive)

**Q.** What about the GI50 [34] of the same compound?
**A.** > 100 µM (inactive)

**Q.** What about the GI50 [35] of the same compound?
**A.** > 100 µM (inactive)

**Q.** And the GI50 [36]?
**A.** > 100 µM (inactive)

**Q.** What about the GI50 [37] of the same compound?
**A.** > 100 µM (inactive)

**Q.** What about the GI50 [38] of the same compound?
**A.** > 100 µM (inactive)

**Q.** And the GI50 [39]?
**A.** > 100 µM (inactive)

**Q.** What about the GI50 [40] of the same compound?
**A.** > 100 µM (inactive)

**Q.** What about the GI50 [41] of the same compound?
**A.** > 100 µM (inactive)

**Q.** What about the GI50 [42] of the same compound?
**A.** > 100 µM (inactive)

**Q.** What about the GI50 [43] of the same compound?
**A.** > 100 µM (inactive)

**Q.** And the GI50 [44]?
**A.** > 100 µM (inactive)

**Q.** And the GI50 [45]?
**A.** 15 µM (inactive)

**Q.** And the GI50 [46]?
**A.** > 100 µM (inactive)

**Q.** What about the GI50 [47] of the same compound?
**A.** > 100 µM (inactive)

**Q.** What about the GI50 [48] of the same compound?
**A.** > 100 µM (inactive)

**Q.** And the GI50 [49]?
**A.** > 100 µM (inactive)

**Q.** And the GI50 [50]?
**A.** > 100 µM (inactive)

**Q.** And the GI50 [51]?
**A.** > 100 µM (inactive)

**Q.** And the GI50 [52]?
**A.** > 100 µM (inactive)

**Q.** What about the GI50 [53] of the same compound?
**A.** > 100 µM (inactive)

**Q.** What about the GI50 [54] of the same compound?
**A.** > 100 µM (inactive)

**Q.** How did the GI50 [1] turn out when `C[C@@H]1CC2(N=CCS2)[C@]2(O)O[C@@H]3C[C@@]4(C)[C@H](C[C@H]3O[C@@H]2O1)C[C@H]1O[C@]12[C@@H]4[C@H](O)C(=O)[C@]1(C)C(C3=CC(=O)OC3)CC[C@]21O` (some centres undefined) was run?
**A.** < 0.01 µM (active)

**Q.** And the GI50 [2]?
**A.** 0.0304 µM (active)

**Q.** What about the GI50 [3] of the same compound?
**A.** 0.0254 µM (active)

**Q.** What about the GI50 [4] of the same compound?
**A.** 0.0306 µM (active)

**Q.** What about the GI50 [5] of the same compound?
**A.** 0.0132 µM (active)

**Q.** What about the GI50 [7] of the same compound?
**A.** < 0.01 µM (active)

**Q.** What about the GI50 [8] of the same compound?
**A.** 0.0251 µM (active)

**Q.** And the GI50 [9]?
**A.** 0.0255 µM (active)

**Q.** What about the GI50 [10] of the same compound?
**A.** < 0.01 µM (active)

**Q.** And the GI50 [12]?
**A.** < 0.01 µM (active)

**Q.** And the GI50 [13]?
**A.** < 0.01 µM (active)

**Q.** What about the GI50 [55] of the same compound?
**A.** 0.0114 µM (active)

**Q.** And the GI50 [15]?
**A.** < 0.01 µM (active)

**Q.** What about the GI50 [16] of the same compound?
**A.** < 0.01 µM (active)

**Q.** And the GI50 [17]?
**A.** 0.0138 µM (active)

**Q.** What about the GI50 [19] of the same compound?
**A.** < 0.01 µM (active)

**Q.** What about the GI50 [56] of the same compound?
**A.** 0.0264 µM (active)

**Q.** What about the GI50 [23] of the same compound?
**A.** 0.022 µM (active)

**Q.** And the GI50 [27]?
**A.** 0.0194 µM (active)

**Q.** What about the GI50 [57] of the same compound?
**A.** < 0.01 µM (active)

**Q.** And the GI50 [28]?
**A.** < 0.01 µM (active)

**Q.** What about the GI50 [29] of the same compound?
**A.** 0.0314 µM (active)

**Q.** What about the GI50 [30] of the same compound?
**A.** < 0.01 µM (active)

**Q.** What about the GI50 [32] of the same compound?
**A.** 0.0129 µM (active)

**Q.** And the GI50 [33]?
**A.** 0.0292 µM (active)

**Q.** And the GI50 [34]?
**A.** 0.0289 µM (active)

**Q.** And the GI50 [35]?
**A.** < 0.01 µM (active)

**Q.** And the GI50 [36]?
**A.** 0.0229 µM (active)

**Q.** And the GI50 [38]?
**A.** 0.0281 µM (active)

**Q.** And the GI50 [58]?
**A.** 0.0187 µM (active)

**Q.** And the GI50 [40]?
**A.** < 0.01 µM (active)

**Q.** What about the GI50 [41] of the same compound?
**A.** 0.0284 µM (active)

**Q.** And the GI50 [42]?
**A.** < 0.01 µM (active)

**Q.** What about the GI50 [43] of the same compound?
**A.** < 0.01 µM (active)

**Q.** What about the GI50 [44] of the same compound?
**A.** < 0.01 µM (active)

**Q.** What about the GI50 [46] of the same compound?
**A.** 0.011 µM (active)

**Q.** And the GI50 [48]?
**A.** 0.0227 µM (active)

**Q.** And the GI50 [49]?
**A.** 0.0282 µM (active)

**Q.** And the GI50 [51]?
**A.** < 0.01 µM (active)

**Q.** And the GI50 [54]?
**A.** 0.0123 µM (active)
